Measured values reported in paper PMC3402541, “Guanidylation and Tail Effects in Cationic Antimicrobial Lipopeptoids” (PLoS ONE, 2012).
Converted amounts (≈) assume the structure as drawn. Where a SMILES comes first, the peptide text is derived from it. [ ]: non-standard residue; d: D form. The star is where a group is joined. Arachidoyl = CCCCCCCCCCCCCCCCCCCC(=O)*; Nlys = NCCCCNCC(=O)O

What was measured:
MRSE CAN-ICU 61589 = type: cell-based, methicillin-resistant S. epidermidis; details: CAN-ICU 61589, 24 h
Procedure: (§1) Antimicrobial activity of the purified lipopeptoids was determined without replication against a panel of clinically relevant and standard reference bacterial strains according to CLSI macrobroth standards. Stock solutions at 512 µg/mL were prepared in water, with DMSO as needed, and testing was performed in glass test tubes using Muller-Hinton broth and bacteria adjusted to 5 × 10^5 CFU/mL. Bacteria were incubated with the lipopeptoid of interest for 24 hr at 37°C prior to reading.
(§2) The bacteria Staphylococcus aureus ATCC 29213, methicillin-resistant S. aureus ATCC 33592, Staphylococcus epidermidis ATCC 14990, Enterococcus faecalis ATCC 29212, E. faecium ATCC 27270, Streptococcus pneumoniae ATCC 49619, Escherichia coli ATCC 25922, Pseudomonas aeruginosa ATCC 27853, and Klebsiella pneumoniae ATCC 13883 were acquired from the American Type Culture Collection (ATCC) and used as quality controls. The clinical strains methicillin-resistant S. epidermidis (MRSE) CAN-ICU 61589, E. coli CAN-ICU 61714, E. coli CAN-ICU 63074, P. aeruginosa CAN-ICU 62308, Stenotrophomonas maltophilia CAN-ICU 62584, Acinetobacter baumannii CAN-ICU 63169 were obtained from hospitals across Canada as part of the CAN-ICU studies, while methicillin-susceptible S. epidermidis (MSSE) 81388 was obtained from the 2008 CANWARD study.
(§3) After subculturing the relevant bacteria twice from frozen stock, in vitro activities of the antimicrobials were determined by macrobroth dilution methodology in accordance with the Clinical and Laboratory Standards Institute (CLSI) guidelines (3). The MICs were determined using glass test tubes (2 mL/tube) containing doubling antimicrobial dilutions of cation adjusted Mueller-Hinton broth inoculated to achieve a final concentration of approximately 5 x 10^5 CFU/mL, incubated in ambient air for 24 hr prior to reading. Colony counts were performed periodically to confirm inocula. The ATCC organisms […] ATCC 49619, Staphylococcus aureus ATCC 29213, Enterococcus faecalis ATCC 29212, Escherichia coli ATCC 25922, and Pseudomonas aeruginosa ATCC 27853 were used as quality control and to allow easy comparison to previously tested antimicrobials. Each test in this series was performed without replication. In our experience with cationic amphiphiles the results are accurate to within a single doubling.

K.pneumoniae ATCC 13883 = type: cell-based, Klebsiella pneumoniae; details: ATCC 13883, 24 h
Procedure: as §1, §2, §3

[1] = tested on: A. baumannii CAN-ICU 63169; type: cell-based, Acinetobacter baumannii; details: CAN-ICU 63169, 24 h
Procedure: as §1, §2, §3

ovine erythrocytes = assay: Haemolytic assay; type: cell-based, sheep; details: ovine erythrocytes in Tris buffered saline, 30 minutes, absorbance of supernatant at 540 nm
Procedure: Mammalian cell toxicity was determined by measuring lysis of ovine erythrocytes, a standard model for human cell toxicity. Cells were prewashed with Tris buffered saline and then incubated with a variety of lipopeptoid concentrations for 30 minutes. Following centrifugation, lysis was evaluated by testing the absorbance of the solution at 540 nm, with 0.5% NH4OH used as a positive control.
Toxicity to mammalian cells was determined using a sheep red blood cell (erythrocyte) haemolytic assay (4). Erythrocytes were washed and resuspended in Tris buffered saline prior to use, at a concentration of 1.46 - 4.5 x 10^9 cells/mL (on average 3.08 x 10^9 cells/mL). The cell suspension was diluted with varying concentrations of antimicrobials, from 50 μg/mL to 1 mg/mL and incubated for thirty minutes (final erythrocyte concentration 4.08 x 10^8 cells/mL). The samples were centrifuged following treatment and the absorbance of the supernatant was measured at 540 nm. A solution of 0.5% […] was used as a positive control, with normal buffered solution as the negative control. The toxicity was assessed as a function of percent haemolysis.

[2] = tested on: S. maltophilia CAN-ICU 62584; type: cell-based, Stenotrophomonas maltophilia; details: CAN-ICU 62584, 24 h
Procedure: as §1, §2, §3

MSSE 81388 CANWARD 2008 = type: cell-based, methicillin-susceptible S. epidermidis; details: 24 h
Procedure: as §1, §2, §3

[3] = tested on: P.aeruginosa CAN-ICU 62308; type: cell-based, Pseudomonas aeruginosa; details: CAN-ICU 62308, 24 h
Procedure: as §1, §2, §3

P.aeruginosa ATCC 27853 = type: cell-based, Pseudomonas aeruginosa; details: ATCC 27853, 24 h
Procedure: as §1, §2, §3

S.pneumoniae ATCC 49619 = type: cell-based, Streptococcus pneumoniae; details: ATCC 49619, 24 h
Procedure: as §1, §2, §3

MRSA ATCC 33592 = type: cell-based, methicillin-resistant S. aureus; details: ATCC 33592, 24 h
Procedure: as §1, §2, §3

S.aureus ATCC 29213 = type: cell-based, Staphylococcus aureus; details: ATCC 29213, 24 h
Procedure: as §1, §2, §3

E. faecium ATCC 27270 = type: cell-based; details: ATCC 27270, 24 h
Procedure: as §1, §2, §3

E.coli CAN-ICU 61714 = type: cell-based, Escherichia coli; details: CAN-ICU 61714, 24 h
Procedure: as §1, §2, §3

E.coli ATCC 25922 = type: cell-based, Escherichia coli; details: ATCC 25922, 24 h
Procedure: as §1, §2, §3

E.coli CAN-ICU 63074 = type: cell-based, Escherichia coli; details: CAN-ICU 63074, 24 h
Procedure: as §1, §2, §3

E. faecalis ATCC 29212 = type: cell-based, Enterococcus faecalis; details: ATCC 29212, 24 h
Procedure: as §1, §2, §3

## CCCCCCCCCCCCCCCCCCCC(=O)N(CCCCN)CC(=O)NCC(=O)N(CCCCN)CC(N)=O [C20-NlysGNlys] (Arachidoyl-[Nlys]-Gly-[Nlys]-NH2)
MRSE CAN-ICU 61589
  MIC MRSE: 8 µg/mL (≈ 12.8 µM)
  MIC MRSE in the presence of 4% bovine serum albumin: 512 µg/mL
K.pneumoniae ATCC 13883
  MIC K.pneumoniae: 128 µg/mL (≈ 205 µM)
  MIC K.pneumoniae in the presence of 4% bovine serum albumin: >512 µg/mL
[1]
  MIC A. baumannii: 128 µg/mL (≈ 205 µM)
  MIC A. baumannii in the presence of 4% bovine serum albumin: >512 µg/mL
Ovine erythrocytes
  Percent haemolysis at 100µg/mL of compound: 33.51%
[2]
  MIC S. maltophilia: 128 µg/mL (≈ 205 µM)
  MIC S. maltophilia in the presence of 4% bovine serum albumin: >512 µg/mL
MSSE 81388 CANWARD 2008
  MIC MSSE: 8 µg/mL (≈ 12.8 µM)
  MIC MSSE in the presence of 4% bovine serum albumin: 256 µg/mL
[3]
  MIC P.aeruginosa: 256 µg/mL (≈ 410 µM)
  MIC P.aeruginosa in the presence of 4% bovine serum albumin: >512 µg/mL
P.aeruginosa ATCC 27853
  MIC P.aeruginosa: 256 µg/mL (≈ 410 µM)
  MIC P.aeruginosa in the presence of 4% bovine serum albumin: >512 µg/mL
S.pneumoniae ATCC 49619
  MIC S.pneumoniae: 128 µg/mL (≈ 205 µM)
  MIC S.pneumoniae in the presence of 4% bovine serum albumin: 512 µg/mL
MRSA ATCC 33592
  MIC MRSA: 16 µg/mL (≈ 25.6 µM)
  MIC MRSA in the presence of 4% bovine serum albumin: 512 µg/mL
S.aureus ATCC 29213
  MIC S.aureus: 8 µg/mL (≈ 12.8 µM)
  MIC S.aureus in the presence of 4% bovine serum albumin: 512 µg/mL
E. faecium ATCC 27270
  MIC E. faecium: 16 µg/mL (≈ 25.6 µM)
  MIC E. faecium in the presence of 4% bovine serum albumin: 512 µg/mL
E.coli CAN-ICU 61714
  MIC E.coli: 256 µg/mL (≈ 410 µM)
  MIC E.coli in the presence of 4% bovine serum albumin: >512 µg/mL
E.coli ATCC 25922
  MIC E.coli: 256 µg/mL (≈ 410 µM)
  MIC E.coli in the presence of 4% bovine serum albumin: >512 µg/mL
E.coli CAN-ICU 63074
  MIC E.coli: 128 µg/mL (≈ 205 µM)
  MIC E.coli in the presence of 4% bovine serum albumin: >512 µg/mL
E. faecalis ATCC 29212
  MIC E. faecalis: 16 µg/mL (≈ 25.6 µM)
  MIC E. faecalis in the presence of 4% bovine serum albumin: 512 µg/mL

## CCCCCCCCCCCCCC(=O)N(CCCCN)CC(=O)N(CCCCN)CC(=O)N(CCCCN)CC(N)=O [C14-NlysNlysNlys]
MRSE CAN-ICU 61589
  MIC MRSE: 16 µg/mL (≈ 26.1 µM)
  MIC MRSE in the presence of 4% bovine serum albumin: 512 µg/mL
K.pneumoniae ATCC 13883
  MIC K.pneumoniae: 512 µg/mL (≈ 837 µM)
  MIC K.pneumoniae in the presence of 4% bovine serum albumin: >512 µg/mL
[1]
  MIC A. baumannii: 512 µg/mL (≈ 837 µM)
  MIC A. baumannii in the presence of 4% bovine serum albumin: >512 µg/mL
Ovine erythrocytes
  Percent haemolysis at 100µg/mL of compound: 2.19%
[2]
  MIC S. maltophilia: >512 µg/mL
  MIC S. maltophilia in the presence of 4% bovine serum albumin: >512 µg/mL
MSSE 81388 CANWARD 2008
  MIC MSSE: 32 µg/mL (≈ 52.3 µM)
  MIC MSSE in the presence of 4% bovine serum albumin: 512 µg/mL
[3]
  MIC P.aeruginosa: 512 µg/mL (≈ 837 µM)
  MIC P.aeruginosa in the presence of 4% bovine serum albumin: 512 µg/mL
P.aeruginosa ATCC 27853
  MIC P.aeruginosa: 512 µg/mL (≈ 837 µM)
  MIC P.aeruginosa in the presence of 4% bovine serum albumin: >512 µg/mL
S.pneumoniae ATCC 49619
  MIC S.pneumoniae: 128 µg/mL (≈ 209 µM)
  MIC S.pneumoniae in the presence of 4% bovine serum albumin: >512 µg/mL
MRSA ATCC 33592
  MIC MRSA: 64 µg/mL (≈ 105 µM)
  MIC MRSA in the presence of 4% bovine serum albumin: 512 µg/mL
S.aureus ATCC 29213
  MIC S.aureus: 32 µg/mL (≈ 52.3 µM)
  MIC S.aureus in the presence of 4% bovine serum albumin: 512 µg/mL
E. faecium ATCC 27270
  MIC E. faecium: 64 µg/mL (≈ 105 µM)
  MIC E. faecium in the presence of 4% bovine serum albumin: 512 µg/mL
E.coli CAN-ICU 61714
  MIC E.coli: 128 µg/mL (≈ 209 µM)
  MIC E.coli in the presence of 4% bovine serum albumin: >512 µg/mL
E.coli ATCC 25922
  MIC E.coli: 128 µg/mL (≈ 209 µM)
  MIC E.coli in the presence of 4% bovine serum albumin: >512 µg/mL
E.coli CAN-ICU 63074
  MIC E.coli: 128 µg/mL (≈ 209 µM)
  MIC E.coli in the presence of 4% bovine serum albumin: >512 µg/mL
E. faecalis ATCC 29212
  MIC E. faecalis: 64 µg/mL (≈ 105 µM)
  MIC E. faecalis in the presence of 4% bovine serum albumin: 512 µg/mL

## CCCCCCCCCCCCCC(=O)N(CCCCNC(=N)N)CC(=O)NCC(=O)N(CCCCNC(=N)N)CC(N)=O [C14-NhargGNharg]
MRSE CAN-ICU 61589
  MIC MRSE: 16 µg/mL (≈ 25.6 µM)
  MIC MRSE in the presence of 4% bovine serum albumin: 512 µg/mL
K.pneumoniae ATCC 13883
  MIC K.pneumoniae: 256 µg/mL (≈ 410 µM)
  MIC K.pneumoniae in the presence of 4% bovine serum albumin: >512 µg/mL
[1]
  MIC A. baumannii: 512 µg/mL (≈ 819 µM)
  MIC A. baumannii in the presence of 4% bovine serum albumin: >512 µg/mL
Ovine erythrocytes
  Percent haemolysis at 100µg/mL of compound: 55.44%
[2]
  MIC S. maltophilia: 256 µg/mL (≈ 410 µM)
  MIC S. maltophilia in the presence of 4% bovine serum albumin: >512 µg/mL
MSSE 81388 CANWARD 2008
  MIC MSSE: 8 µg/mL (≈ 12.8 µM)
  MIC MSSE in the presence of 4% bovine serum albumin: 512 µg/mL
[3]
  MIC P.aeruginosa: 128 µg/mL (≈ 205 µM)
  MIC P.aeruginosa in the presence of 4% bovine serum albumin: >512 µg/mL
P.aeruginosa ATCC 27853
  MIC P.aeruginosa: 64 µg/mL (≈ 102 µM)
  MIC P.aeruginosa in the presence of 4% bovine serum albumin: >512 µg/mL
S.pneumoniae ATCC 49619
  MIC S.pneumoniae: 128 µg/mL (≈ 205 µM)
  MIC S.pneumoniae in the presence of 4% bovine serum albumin: 512 µg/mL
MRSA ATCC 33592
  MIC MRSA: 16 µg/mL (≈ 25.6 µM)
  MIC MRSA in the presence of 4% bovine serum albumin: 512 µg/mL
S.aureus ATCC 29213
  MIC S.aureus: 16 µg/mL (≈ 25.6 µM)
  MIC S.aureus in the presence of 4% bovine serum albumin: 512 µg/mL
E. faecium ATCC 27270
  MIC E. faecium: 32 µg/mL (≈ 51.2 µM)
  MIC E. faecium in the presence of 4% bovine serum albumin: 512 µg/mL
E.coli CAN-ICU 61714
  MIC E.coli: 64 µg/mL (≈ 102 µM)
  MIC E.coli in the presence of 4% bovine serum albumin: >512 µg/mL
E.coli ATCC 25922
  MIC E.coli: 32 µg/mL (≈ 51.2 µM)
  MIC E.coli in the presence of 4% bovine serum albumin: 512 µg/mL
E.coli CAN-ICU 63074
  MIC E.coli: 64 µg/mL (≈ 102 µM)
  MIC E.coli in the presence of 4% bovine serum albumin: >512 µg/mL
E. faecalis ATCC 29212
  MIC E. faecalis: 32 µg/mL (≈ 51.2 µM)
  MIC E. faecalis in the presence of 4% bovine serum albumin: 512 µg/mL
